# Literature values as cited in patent US12365919B2, “Serum-free suspension system for lentiviral production” (priority 2016, dated 2025).
# Test system: lentiviral vector production
# Details: serum-based culture system; worked only ~50% as well as caffeine
compound,measurement,value
CCCC(=O)[O-].[Na+] [sodium butyrate],"lentiviral vector production enhancement, relative to caffeine",~50%
